{"source": "the supplement of paper PMC10307832", "test_in_all_cases": "relative viability (nuclei count vs DMSO), 5 days (fraction); higher = more cells survive", "key": {"[1]": {"system": "HCC-15", "outline": "(§1)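 After 5 days of treatment, lung cancer cells in 1536-well plates were fixed and stained in a single step (final 0.05% Triton X-100, 1% formaldehyde, 1 ug/ml Hoechst) and their nuclei counted on 4× images. Treatment had been applied by pin tool the day after seeding as one drug alone or as a fixed anchor-drug dose with five library-drug doses (not always all listed) in √10 steps. Relative viability is the nuclei count of treated wells divided by that of vehicle wells, and values are medians of duplicate plates.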"}, "[2]": {"system": "SK-LU-1", "outline": "as §1"}, "[3]": {"system": "NCI-H1993", "outline": "as §1"}, "[4]": {"system": "NCI-H1915", "outline": "as §1"}, "[5]": {"system": "PC-3 [JPC-3]", "outline": "as §1"}, "[6]": {"system": "NCI-H3122", "outline": "as §1"}, "[7]": {"system": "NCI-H596", "outline": "as §1"}, "[8]": {"system": "EKVX", "outline": "as §1"}, "[9]": {"system": "RERF-LC-KJ", "outline": "as §1"}, "[10]": {"system": "HCC-827", "outline": "as §1"}, "[11]": {"system": "NCI-H1755", "outline": "as §1"}, "[12]": {"system": "COR-L 105", "outline": "as §1"}, "[13]": {"system": "LC-2-ad", "outline": "as §1"}, "[14]": {"system": "COR-L23", "outline": "as §1"}, "[15]": {"system": "LCLC-97TM1", "outline": "as §1"}, "[16]": {"system": "HCC-366", "outline": "as §1"}, "[17]": {"system": "NCI-H1944", "outline": "as §1"}, "[18]": {"system": "SK-MES-1", "outline": "as §1"}, "[19]": {"system": "BEN", "outline": "as §1"}, "[20]": {"system": "LU99A", "outline": "as §1"}}}
{"compound": "COCC1(CO)C(=O)C2CCN1CC2", "note": "(stereo unspecified) [PRIMA-1MET] + C[C@@H](Oc1cc(-c2cnn(C3CCNCC3)c2)cnc1N)c1c(Cl)ccc(F)c1Cl [Crizotinib] (partner 1 µM)", "values": [{"measurement": "relative viability", "setting": "[1]; first compound 0.2 µM", "value": 0.925}, {"measurement": "relative viability", "setting": "[1]; first compound 0.6325 µM", "value": 0.786}, {"measurement": "relative viability", "setting": "[1]; first compound 2 µM", "value": 0.802}, {"measurement": "relative viability", "setting": "[1]; first compound 6.325 µM", "value": 0.807}, {"measurement": "relative viability", "setting": "[1]; first compound 20 µM", "value": 0.706}, {"measurement": "relative viability", "setting": "[2]; first compound 0.2 µM", "value": 0.93}, {"measurement": "relative viability", "setting": "[2]; first compound 0.6325 µM", "value": 0.729}, {"measurement": "relative viability", "setting": "[2]; first compound 2 µM", "value": 0.837}, {"measurement": "relative viability", "setting": "[2]; first compound 6.325 µM", "value": 1.09}, {"measurement": "relative viability", "setting": "[2]; first compound 20 µM", "value": 0.114}, {"measurement": "relative viability", "setting": "[3]; first compound 0.2 µM", "value": 1.14}, {"measurement": "relative viability", "setting": "[3]; first compound 0.6325 µM", "value": 0.892}, {"measurement": "relative viability", "setting": "[3]; first compound 2 µM", "value": 0.738}, {"measurement": "relative viability", "setting": "[3]; first compound 6.325 µM", "value": 0.883}, {"measurement": "relative viability", "setting": "[3]; first compound 20 µM", "value": 0.822}, {"measurement": "relative viability", "setting": "[4]; first compound 0.2 µM", "value": 0.975}, {"measurement": "relative viability", "setting": "[4]; first compound 0.6325 µM", "value": 0.703}, {"measurement": "relative viability", "setting": "[4]; first compound 2 µM", "value": 0.794}, {"measurement": "relative viability", "setting": "[4]; first compound 6.325 µM", "value": 0.912}, {"measurement": "relative viability", "setting": "[4]; first compound 20 µM", "value": 0.852}, {"measurement": "relative viability", "setting": "[5]; first compound 0.2 µM", "value": 0.995}, {"measurement": "relative viability", "setting": "[5]; first compound 0.6325 µM", "value": 0.911}, {"measurement": "relative viability", "setting": "[5]; first compound 2 µM", "value": 0.966}, {"measurement": "relative viability", "setting": "[5]; first compound 6.325 µM", "value": 1.07}, {"measurement": "relative viability", "setting": "[5]; first compound 20 µM", "value": 0.951}, {"measurement": "relative viability", "setting": "[6]; first compound 0.2 µM", "value": 0.317}, {"measurement": "relative viability", "setting": "[6]; first compound 0.6325 µM", "value": 0.25}, {"measurement": "relative viability", "setting": "[6]; first compound 2 µM", "value": 0.259}, {"measurement": "relative viability", "setting": "[6]; first compound 6.325 µM", "value": 0.286}, {"measurement": "relative viability", "setting": "[6]; first compound 20 µM", "value": 0.284}, {"measurement": "relative viability", "setting": "[7]; first compound 0.2 µM", "value": 1.08}, {"measurement": "relative viability", "setting": "[7]; first compound 0.6325 µM", "value": 0.962}, {"measurement": "relative viability", "setting": "[7]; first compound 2 µM", "value": 0.863}, {"measurement": "relative viability", "setting": "[7]; first compound 6.325 µM", "value": 1.04}, {"measurement": "relative viability", "setting": "[7]; first compound 20 µM", "value": 0.174}, {"measurement": "relative viability", "setting": "[8]; first compound 0.2 µM", "value": 1.11}, {"measurement": "relative viability", "setting": "[8]; first compound 0.6325 µM", "value": 0.893}, {"measurement": "relative viability", "setting": "[8]; first compound 2 µM", "value": 0.665}, {"measurement": "relative viability", "setting": "[8]; first compound 6.325 µM", "value": 0.997}, {"measurement": "relative viability", "setting": "[8]; first compound 20 µM", "value": 0.891}, {"measurement": "relative viability", "setting": "[9]; first compound 0.2 µM", "value": 0.868}, {"measurement": "relative viability", "setting": "[9]; first compound 0.6325 µM", "value": 0.767}, {"measurement": "relative viability", "setting": "[9]; first compound 2 µM", "value": 0.86}, {"measurement": "relative viability", "setting": "[9]; first compound 6.325 µM", "value": 0.85}, {"measurement": "relative viability", "setting": "[9]; first compound 20 µM", "value": 0.847}, {"measurement": "relative viability", "setting": "[10]; first compound 0.2 µM", "value": 1.06}, {"measurement": "relative viability", "setting": "[10]; first compound 0.6325 µM", "value": 0.813}, {"measurement": "relative viability", "setting": "[10]; first compound 2 µM", "value": 0.796}, {"measurement": "relative viability", "setting": "[10]; first compound 6.325 µM", "value": 0.978}, {"measurement": "relative viability", "setting": "[10]; first compound 20 µM", "value": 0.896}, {"measurement": "relative viability", "setting": "[11]; first compound 0.2 µM", "value": 0.996}, {"measurement": "relative viability", "setting": "[11]; first compound 0.6325 µM", "value": 0.825}, {"measurement": "relative viability", "setting": "[11]; first compound 2 µM", "value": 0.826}, {"measurement": "relative viability", "setting": "[11]; first compound 6.325 µM", "value": 0.915}, {"measurement": "relative viability", "setting": "[11]; first compound 20 µM", "value": 0.81}, {"measurement": "relative viability", "setting": "[12]; first compound 0.2 µM", "value": 0.918}, {"measurement": "relative viability", "setting": "[12]; first compound 0.6325 µM", "value": 0.664}, {"measurement": "relative viability", "setting": "[12]; first compound 2 µM", "value": 0.74}, {"measurement": "relative viability", "setting": "[12]; first compound 6.325 µM", "value": 0.782}, {"measurement": "relative viability", "setting": "[12]; first compound 20 µM", "value": 0.254}, {"measurement": "relative viability", "setting": "[13]; first compound 0.2 µM", "value": 0.484}, {"measurement": "relative viability", "setting": "[13]; first compound 0.6325 µM", "value": 0.434}, {"measurement": "relative viability", "setting": "[13]; first compound 2 µM", "value": 0.398}, {"measurement": "relative viability", "setting": "[13]; first compound 6.325 µM", "value": 0.39}, {"measurement": "relative viability", "setting": "[13]; first compound 20 µM", "value": 0.382}, {"measurement": "relative viability", "setting": "[14]; first compound 0.2 µM", "value": 0.704}, {"measurement": "relative viability", "setting": "[14]; first compound 0.6325 µM", "value": 0.612}, {"measurement": "relative viability", "setting": "[14]; first compound 2 µM", "value": 0.61}, {"measurement": "relative viability", "setting": "[14]; first compound 6.325 µM", "value": 0.565}, {"measurement": "relative viability", "setting": "[14]; first compound 20 µM", "value": 0.0228}, {"measurement": "relative viability", "setting": "[15]; first compound 0.2 µM", "value": 0.494}, {"measurement": "relative viability", "setting": "[15]; first compound 2 µM", "value": 0.378}, {"measurement": "relative viability", "setting": "[15]; first compound 6.325 µM", "value": 0.234}, {"measurement": "relative viability", "setting": "[15]; first compound 20 µM", "value": 0.0997}, {"measurement": "relative viability", "setting": "[16]; first compound 0.2 µM", "value": 0.702}, {"measurement": "relative viability", "setting": "[16]; first compound 0.6325 µM", "value": 0.515}, {"measurement": "relative viability", "setting": "[16]; first compound 6.325 µM", "value": 0.506}, {"measurement": "relative viability", "setting": "[16]; first compound 20 µM", "value": 0.009}, {"measurement": "relative viability", "setting": "[17]; first compound 0.2 µM", "value": 1.36}, {"measurement": "relative viability", "setting": "[17]; first compound 0.6325 µM", "value": 0.817}, {"measurement": "relative viability", "setting": "[17]; first compound 6.325 µM", "value": 1.09}, {"measurement": "relative viability", "setting": "[17]; first compound 20 µM", "value": 1.06}, {"measurement": "relative viability", "setting": "[18]; first compound 0.2 µM", "value": 1.09}, {"measurement": "relative viability", "setting": "[18]; first compound 0.6325 µM", "value": 0.968}, {"measurement": "relative viability", "setting": "[18]; first compound 2 µM", "value": 1.03}, {"measurement": "relative viability", "setting": "[18]; first compound 6.325 µM", "value": 0.943}, {"measurement": "relative viability", "setting": "[18]; first compound 20 µM", "value": 0.997}, {"measurement": "relative viability", "setting": "[19]; first compound 0.2 µM", "value": 0.973}, {"measurement": "relative viability", "setting": "[19]; first compound 0.6325 µM", "value": 0.88}, {"measurement": "relative viability", "setting": "[19]; first compound 6.325 µM", "value": 0.974}, {"measurement": "relative viability", "setting": "[19]; first compound 20 µM", "value": 0.735}, {"measurement": "relative viability", "setting": "[20]; first compound 0.2 µM", "value": 0.564}, {"measurement": "relative viability", "setting": "[20]; first compound 0.6325 µM", "value": 0.475}, {"measurement": "relative viability", "setting": "[20]; first compound 2 µM", "value": 0.576}, {"measurement": "relative viability", "setting": "[20]; first compound 6.325 µM", "value": 0.501}, {"measurement": "relative viability", "setting": "[20]; first compound 20 µM", "value": 0.0737}]}
